According to patent publication US5817692A, “Endoperoxides useful as antiparasitic agents” (priority 1996, dated 1998):
Read-outs that look alike come from different tables or passages of the source.

Key:
L929 cells = assay: cytotoxicity to L929 cells, MTT assay (viability and replication); format: cell-based; design: Toxicity, Mean: unit not given here; conditions: for Toxicity, Score / Toxicity, Mean / inhibition at 0.1 µM / inhibition at 1 µM / inhibition at 10 µM / inhibition at 50 µM: L929 cells; for Toxicity, Mean: MTT; for inhibition at 0.1 µM / inhibition at 1 µM / inhibition at 10 µM / inhibition at 50 µM: Mus musculus, read-out: Toxicity, % of control (inhibition)
Experimental: Toxoplasma gondii is the causative agent of cerebral toxoplasmic encephalitis, an AIDS-related opportunistic infection. The biological activity of the endoperoxide JHU 2886 of the present invention was measured against Toxoplasma gondii cultured in L929 cells.
More specifically, the cytotoxicity of synthetic organic endoperoxide JHU 2886 was tested in L929 cells by measuring the viability and replication of exposed cells. The cytotoxicity of the compound to the cultured cells was measured using the MTT assay (Promega kit), according to the procedure of Carmichael et al. (18). MTT is an abbreviation for [3-(4,5-dimethylthiazol-2-yl)-2,5-dephenyltetrazolium bromide].
This compound is referred to as JHU 2886 in Table 1. In this experiment atovaquone and artemisinin were used as positive controls. Atovaquone is a broad-spectrum anti-infective drug having antimalarial and antitoxoplasmosis activity (19).
^1 The cytotoxicity of each compound for the cultured cells was
measured using the MTT assay (Promega kit) and inhibition of the […]

Toxoplasma gondii = assay: inhibition of intracellular replication of T. gondii in infected L929 cells, uracil incorporation assay; format: cell-based; design: Activity, Mean: unit not given here; conditions: for Activity, Mean: uracil incorporation; for inhibition at 1 µM / inhibition at 10 µM / inhibition at 50 µM / inhibition at 0.1 µM: Toxoplasma gondii, L929, read-out: Activity, % of control (inhibition)
Experimental: Toxoplasma gondii is the causative agent of cerebral toxoplasmic encephalitis, an AIDS-related opportunistic infection. The biological activity of the endoperoxide JHU 2886 of the present invention was measured against Toxoplasma gondii cultured in L929 cells. The inhibitory activity of the synthetic organic endoperoxide was tested by measuring the intracellular replication of T. gondii in infected L929 cells. The inhibition of the intracellular replication of T. gondii was determined using the uracil incorporation assay (20). […] This compound is referred to as JHU 2886 in Table 1. In this experiment atovaquone and artemisinin were used as positive controls. Atovaquone is a broad-spectrum anti-infective drug having antimalarial and antitoxoplasmosis activity (19). | measured using the MTT assay (Promega kit) and inhibition of the | intracellular replication of T. gondii was determined using the uracil | incorporation assay.

SMILES: c1ccc(C23CCCC(c4ccccc4)(CC2)OO3)cc1 [JHU 2886]
- toxicity in L929 cells, in words (L929 cells; 50 μM): some toxicity
- toxicity in L929 cells, in words (L929 cells; 24, 48 and 72 hours, concentrations as high as 10 μM): little toxicity
- Toxicity, Score (L929 cells; 24 hours, dose 0.1 μM): 1 (≤20%)
- Toxicity, Mean (L929 cells; 24 hours, dose 0.1 μM): 0.129
- Toxicity, Score (L929 cells; 24 hours, dose 1.0 μM): 0
- Toxicity, Mean (L929 cells; 24 hours, dose 1.0 μM): 0.133
- Toxicity, Score (L929 cells; 24 hours, dose 10.0 μM): 0
- Toxicity, Mean (L929 cells; 24 hours, dose 10.0 μM): 0.130
- Toxicity, Score (L929 cells; 24 hours, dose 50.0 μM): 2 (>20%-≤40%)
- Toxicity, Mean (L929 cells; 24 hours, dose 50.0 μM): 0.089
- Toxicity, Score (L929 cells; 48 hours, dose 0.1 μM): 0
- Toxicity, Mean (L929 cells; 48 hours, dose 0.1 μM): 0.227
- Toxicity, Score (L929 cells; 48 hours, dose 1.0 μM): 0
- Toxicity, Mean (L929 cells; 48 hours, dose 1.0 μM): 0.219
- Toxicity, Score (L929 cells; 48 hours, dose 10.0 μM): 0
- Toxicity, Mean (L929 cells; 48 hours, dose 10.0 μM): 0.217
- Toxicity, Score (L929 cells; 48 hours, dose 50.0 μM): 2 (>20%-≤40%)
- Toxicity, Mean (L929 cells; 48 hours, dose 50.0 μM): 0.147
- Toxicity, Score (L929 cells; 72 hours, dose 0.1 μM): 0
- Toxicity, Mean (L929 cells; 72 hours, dose 0.1 μM): 0.479
- Toxicity, Score (L929 cells; 72 hours, dose 1.0 μM): 0
- Toxicity, Mean (L929 cells; 72 hours, dose 1.0 μM): 0.460
- Toxicity, Score (L929 cells; 72 hours, dose 10.0 μM): 0
- Toxicity, Mean (L929 cells; 72 hours, dose 10.0 μM): 0.448
- Toxicity, Score (L929 cells; 72 hours, dose 50.0 μM): 2 (>20%-≤40%)
- Toxicity, Mean (L929 cells; 72 hours, dose 50.0 μM): 0.275
- inhibition at 0.1 µM (L929 cells; 24 hours, dose 0.1 μM): 0.26%
- inhibition at 1 µM (L929 cells; 24 hours, dose 1.0 μM): 0%
- inhibition at 10 µM (L929 cells; 24 hours, dose 10.0 μM): 0%
- inhibition at 50 µM (L929 cells; 24 hours, dose 50.0 μM): 31.2%
- inhibition at 0.1 µM (L929 cells; 48 hours, dose 0.1 μM): 0%
- inhibition at 1 µM (L929 cells; 48 hours, dose 1.0 μM): 0%
- inhibition at 10 µM (L929 cells; 48 hours, dose 10.0 μM): 0%
- inhibition at 50 µM (L929 cells; 48 hours, dose 50.0 μM): 30.4%
- inhibition at 0.1 µM (L929 cells; 72 hours, dose 0.1 μM): 0%
- inhibition at 1 µM (L929 cells; 72 hours, dose 1.0 μM): 0%
- inhibition at 10 µM (L929 cells; 72 hours, dose 10.0 μM): 0%
- inhibition at 50 µM (L929 cells; 72 hours, dose 50.0 μM): 37.4%
- antiparasitic activity, in words (Toxoplasma gondii; 24 and 48 hours, all concentrations tested): significant antiparasitic activity
- Activity, Score (Toxoplasma gondii; 24 hours, dose 0.1 μM): 2 (>20%-≤40%)
- Activity, Mean (Toxoplasma gondii; 24 hours, dose 0.1 μM): 6079
- Activity, Score (Toxoplasma gondii; 24 hours, dose 1.0 μM): 3 (>40%-≤70%)
- Activity, Mean (Toxoplasma gondii; 24 hours, dose 1.0 μM): 2668
- Activity, Score (Toxoplasma gondii; 24 hours, dose 10.0 μM): 4 (>70%-≤90%)
- Activity, Mean (Toxoplasma gondii; 24 hours, dose 10.0 μM): 1967
- Activity, Score (Toxoplasma gondii; 24 hours, dose 50.0 μM): 4 (>70%-≤90%)
- Activity, Mean (Toxoplasma gondii; 24 hours, dose 50.0 μM): 2104
- Activity, Score (Toxoplasma gondii; 48 hours, dose 0.1 μM): 1 (≤20%)
- Activity, Mean (Toxoplasma gondii; 48 hours, dose 0.1 μM): 14841
- Activity, Score (Toxoplasma gondii; 48 hours, dose 1.0 μM): 1 (≤20%)
- Activity, Mean (Toxoplasma gondii; 48 hours, dose 1.0 μM): 12880
- Activity, Score (Toxoplasma gondii; 48 hours, dose 10.0 μM): 4 (>70%-≤90%)
- Activity, Mean (Toxoplasma gondii; 48 hours, dose 10.0 μM): 4428
- Activity, Score (Toxoplasma gondii; 48 hours, dose 50.0 μM): 4 (>70%-≤90%)
- Activity, Mean (Toxoplasma gondii; 48 hours, dose 50.0 μM): 1808
- antiparasitic activity, in words (Toxoplasma gondii; 72 hours, 1 μM and above): significant activity
- Activity, Score (Toxoplasma gondii; 72 hours, dose 0.1 μM): 1 (≤20%)
- Activity, Mean (Toxoplasma gondii; 72 hours, dose 0.1 μM): 6934
- Activity, Score (Toxoplasma gondii; 72 hours, dose 1.0 μM): 1 (≤20%)
- Activity, Mean (Toxoplasma gondii; 72 hours, dose 1.0 μM): 6219
- Activity, Score (Toxoplasma gondii; 72 hours, dose 10.0 μM): 4 (>70%-≤90%)
- Activity, Mean (Toxoplasma gondii; 72 hours, dose 10.0 μM): 1321
- Activity, Score (Toxoplasma gondii; 72 hours, dose 50.0 μM): 4 (>70%-≤90%)
- Activity, Mean (Toxoplasma gondii; 72 hours, dose 50.0 μM): 1252
- inhibition at 1 µM (Toxoplasma gondii; 24 hours, dose 1.0 μM): 69.6%
- inhibition at 10 µM (Toxoplasma gondii; 24 hours, dose 10.0 μM): 77.6%
- inhibition at 50 µM (Toxoplasma gondii; 24 hours, dose 50.0 μM): 76%
- inhibition at 0.1 µM (Toxoplasma gondii; 48 hours, dose 0.1 μM): 6.18%
- inhibition at 1 µM (Toxoplasma gondii; 48 hours, dose 1.0 μM): 18.6%
- inhibition at 10 µM (Toxoplasma gondii; 48 hours, dose 10.0 μM): 72%
- inhibition at 50 µM (Toxoplasma gondii; 48 hours, dose 50.0 μM): 88.6%
- inhibition at 0.1 µM (Toxoplasma gondii; 72 hours, dose 0.1 μM): 3.24%
- inhibition at 1 µM (Toxoplasma gondii; 72 hours, dose 1.0 μM): 13.2%
- inhibition at 10 µM (Toxoplasma gondii; 72 hours, dose 10.0 μM): 81.6%
- inhibition at 50 µM (Toxoplasma gondii; 72 hours, dose 50.0 μM): 82.5%
